# Source: PMC12192727, “Strategies to Develop Na,K-ATPase-α4 Inhibitors as Male Contraceptives” (International Journal of Molecular Sciences, 2025)
# Like-named read-outs stand apart in the source and are kept apart here. Marks after values point to notes of the source that are not given here.
# Columns and labels:
# Caco-2 cell permeability = assay type: in vitro ADME, human; settings: human
# Method: (§1) The in vitro permeability and potential to be transported by P-gp (P-glycoprotein) were determined in a Caco-2 or MDCK cell line. Values are reported for a mass recovery > 60%. The efflux ratio was determined as follows: P^app(B-A)/Papp(A-B). The experimental details are reported in the Supporting Information (Tables S2–S5).
# (§2) The recovery can be determined using the following equation:
# (§3) Recovery%=(VA×[drug]acceptor+VD×[drug]donor)/(VD×[drug]initial, donor)
# (§4) Where VA is the volume (in mL) in the acceptor well (0.235 mL for Ap→Bl flux, and 0.075 mL for
# (§5) Bl→Ap), VD is the volume (in mL) in the donor well (0.075 mL for Ap→Bl flux, and 0.235 mL for
# (§6) The leakage of Lucifer Yellow, in unit of percentage (%), can be calculated using the following
# (§7) %LY leakage = 100×[LY]acceptor×0.3/([LY]donor×0.1+[LY]acceptor×0.3)
# (§8) LY leakage of <1% is acceptable to indicate the well-qualified MDCK/ Caco-2 monolayer.
# (§9) Table S5 . The Assessment of Caco-2 Cell Monolayer Integrity
# (§10) The apparent permeability coefficient (Papp), Efflux ratio (ER), recovery percentage, and LY leakage percentage can be
# (§11) calculated for Caco-2 Cell drug transport assays using the above equations. […]
# Caco-2 cells = test: Caco-2 cell permeability; assay type: in vitro ADME, human; settings: Caco-2 cell line
# Method: as §1, §2, §3, §4, §5, §6, §7, §8, §9, §10, §11
# [1] = LogD, 1-octanol/phosphate buffer pH 7.4; assay type: physicochemical
# [2] = In vivo pharmacokinetic study; set-up: species or system CD-1 mice; settings: for Plasma concentration (mean): BLOQ = 0.5 ng/mL; for MRT inf: read-out: MRTInf_obs
# Method: Male CD-1 mice (approximately 6–8 weeks old, weighing 20–25 g, supplied by Vital River, Beijing, China) were used for the pharmacokinetic studies. Each mouse (n = 2) received either a bolus intravenous injection via the tail vein or oral gavage administration of the test compound. The formulation consisted of 20% HP-b-CD in PBS (pH 7.4), administered at a dose level of 10 mg/kg. The intravenous dose volume was 5 mL/kg, while the oral dose volume was 10 mL/kg. […] At the end of the study, the mice were euthanized by the inhalation of rising carbon dioxide concentrations. Samples were centrifuged at 4000× g for 5 min at 4 °C to obtain plasma. The plasma samples were stored at −75 ± 15 °C before analysis. Plasma samples were analyzed using the LC/MS/MS method. WinNonlin (PhoenixTM, version 8.3) software was employed for pharmacokinetic analysis calculations. The experimental details are reported in the Supporting Information. […]
# Snap Shot PK of 45 in CD1-Mice
# Formulations IV 20% HP-b-CD in PBS
# (1 picture or pasted object on this page, not shown here)
# Dosing Solutions: IV 2 mg/mL
# IV&PO Plasma: 0 .5, 1, 3, and 5 h
# Blood Sampling @ post dose
# Mobile Phase A 5% Acetonitrile in Water (0.1%Formic acid)
# Quantification Internal Standard Method
# 10 uL of plasma sample + 5 uL of blank solution +
# 200 uL of acetonitrile for PPE (protein precipitation
# 1. BLOQ = 0.5 ng/mL for plasma
# 3. PK parameters were estimated by non-compartmental model using WinNonlin 8.3
# 4. The bioavailability (F%) was calculated as following: […]
# [3] = Metabolic stability in rat hepatocytes; assay type: in vitro ADME; settings: rat hepatocytes
# Method: (§12) The in vitro metabolic half-life (t1/2) is calculated using the slope of the log−linear regression from the percentage of the parent compound remaining versus the time relationship (κ). The experimental details are reported in the Supporting Information (Tables S6 and S7).
# [4] = system: Salmonella typhimurium strains TA98 and TA100; test: Mini Ames test; assay type: cell-based; settings: with and without S9
# Method: The mutagenic potential of 45 was evaluated using the Mini Ames test, which measures reverse mutations at the histidine locus in Salmonella typhimurium strains TA98 and TA100. The assay was conducted with and without exogenous metabolic activation (β-naphthoflavone/phenobarbital-induced rat liver S9). The experimental details are reported in the Supporting Information).
# [5] = Stability in PBS (pH 7.4); assay type: physicochemical; settings: PBS pH 7.4, compound remaining after 60 min
# Method: Solubility, permeability, compound stability, metabolic stability, and toxicity studies were performed at Pharmaron (Waltham, MA, USA).
# [6] = Metabolic stability in mouse hepatocytes; assay type: in vitro ADME; settings: mouse hepatocytes
# Method: as §12
# mouse hepatocytes = test: Metabolic stability in mouse hepatocytes; assay type: in vitro ADME
# Method: as §12
# [7] = male, CD-1, mouse, plasma, CD1 mice, IV 10 mg/kg
# [8] = male, CD-1, mouse, plasma, CD1 mice, PO 10 mg/kg
# [9] = male, CD-1, mouse, plasma, IV 10 mg/kg
# [10] = male, CD-1, mouse, plasma, PO 10 mg/kg
# [11] = male, CD-1, mouse, CD1 mice, IV 10 mg/kg, plasma
smiles,measurement,setting,value
"CC12CCC(=O)C=C1CCCC2n1cc(-c2ccccc2)nn1 (stereo not drawn) [Compound 45, 4a-Methyl-5-(4-phenyl-1H-1,2,3-triazol-1-yl)-4,4a,5,6,7,8-hexahydronaphthalen-2(3H)-one]",Papp A→B,"Caco-2 cell permeability; Caco-2, Caco-2 cell line, read-out: Permeability Papp (A-B)",24 ×10⁻⁶ cm/s
same,Papp A→B,"Caco-2 cell permeability; Caco-2, Caco-2 cells, read-out: Papp (A-B)",24 ×10⁻⁶ cm/s
same,recovery,"Caco-2 cell permeability; Caco-2, Caco-2 cells, read-out: Recovery (%) AP-BL",64.3%
same,recovery,"Caco-2 cell permeability; Caco-2, Caco-2 cells, read-out: Recovery (%) BL-AP",77.9%
same,Papp B→A,Caco-2 cell permeability; Caco-2 cells,11.8 ×10⁻⁶ cm/s
same,efflux ratio,"Caco-2 cell permeability; Caco-2 cells, Papp(B-A)/Papp(A-B)",0.49
same,Permeability Papp (A-B),Caco-2 cells,good
same,logD,[1],2.66
same,AUC_%Extrap_obs,"[2]; CD1 mice, IV 10 mg/kg",0.250%
same,AUClast/D,"[2]; CD1 mice, IV 10 mg/kg",55.9 kg·ng·h/mL/mg
same,Vss_obs,"[2]; CD1 mice, IV 10 mg/kg (supplement)",1.10 L/kg
same,AUC_%Extrap_obs,"[2]; CD1 mice, PO 10 mg/kg",3.43%
same,AUClast/D,"[2]; CD1 mice, PO 10 mg/kg",7.43 kg·ng·h/mL/mg
same,F% (oral bioavailability),"[2]; CD1 mice, PO 10 mg/kg, 10 mg/kg",13.7%
same,Plasma concentration (mean),"[2]; IV 10 mg/kg, 3 h",BLOQ
same,Plasma concentration (mean),"[2]; IV 10 mg/kg, 5 h",BLOQ
same,bioavailability,"[2]; male, CD-1, mouse, plasma, po, 10 mg/kg, CD1 mice, PO 10 mg/kg, read-out: F% (oral bioavailability)",14%
same,AUC(0-inf),[2]; [7],561 ng·h/mL
same,AUC(0-t),[2]; [7],559 ng·h/mL
same,half-life,[2]; [7],7.5 min
same,Vd,"[2]; male, CD-1, mouse, plasma, CD1 mice, IV 10 mg/kg (Table 5), read-out: Vss",1.1 L/kg
same,MRT inf,[2]; [7],3.7 min
same,AUC(0-inf),[2]; [8],77 ng·h/mL
same,AUC(0-t),[2]; [8],74.3 ng·h/mL
same,Tmax,[2]; [8],30 min
same,half-life,[2]; [8],64.2 min
same,MRT inf,[2]; [8],67.8 min
same,concentration at 0.5 h,[2]; [9],124 ng/mL
same,concentration at 1 h,[2]; [9],7.76 ng/mL
same,concentration at 0.5 h,[2]; [10],79.7 ng/mL
same,concentration at 1 h,[2]; [10],22.8 ng/mL
same,concentration at 3 h,"[2]; male, CD-1, mouse, plasma, PO 10 mg/kg, 3 h",2.14 ng/mL
same,concentration at 5 h,"[2]; male, CD-1, mouse, plasma, PO 10 mg/kg, 5 h",1.71 ng/mL
same,clearance,"[2]; male, CD-1, mouse, plasma, mice, intravenous 10 mg/kg, read-out: clearance rate",297 mL/min/kg
same,C0,[2]; [11],1980 ng/mL
same,Cmax,[2]; [11],124 ng/mL
same,Cmax,"[2]; male, CD-1, mouse, CD1 mice, PO 10 mg/kg, plasma",79.7 ng/mL
same,hepatocyte CLint at 1 μM,[3]; read-out: In vitro Clint,72.2 µL/min/1e6 cells
same,half-life at 1 µM,"[3]; rat, hepatocytes, read-out: In vitro T1/2",19.2 min
same,CLint scaled at 1 µM,"[3]; rat, hepatocytes, read-out: Scale-up Clint",338 mL/min/kg
same,Mini Ames,[4],Mini Ames ^e: negative
same,Stability,[5],Stability: 96% ^a
same,hepatocyte CLint at 1 μM,[6]; read-out: In vitro Clint,77.1 µL/min/1e6 cells
same,CLint scaled at 1 µM,[6]; read-out: Scale-up Clint,911 mL/min/kg
same,half-life at 1 µM,"[6]; mouse, hepatocytes, read-out: In vitro T1/2",18 min
same,Remaining Percentage (%),"mouse hepatocytes; mouse boiled hepatocytes, 0 min",100.00%
same,Remaining Percentage (%),"mouse hepatocytes; mouse boiled hepatocytes, 15 min",104.93%
same,Remaining Percentage (%),"mouse hepatocytes; mouse boiled hepatocytes, 30 min",101.77%
same,Remaining Percentage (%),"mouse hepatocytes; mouse boiled hepatocytes, 60 min",101.78%
same,Remaining Percentage (%),"mouse hepatocytes; mouse boiled hepatocytes, 90 min",101.42%
same,Remaining Percentage (%),"mouse hepatocytes; mouse boiled hepatocytes, 120 min",100.86%
same,Hepatic Extraction Ratio (E),mouse hepatocytes; mouse hepatocytes,0.91
same,Predicted hepatic CL,mouse hepatocytes; mouse hepatocytes,81.91 mL/min/kg
same,Remaining Percentage (%),"mouse hepatocytes; mouse hepatocytes, 0 min",100.00%
same,Remaining Percentage (%),"mouse hepatocytes; mouse hepatocytes, 15 min",54.16%
same,Remaining Percentage (%),"mouse hepatocytes; mouse hepatocytes, 30 min",31.17%
same,Remaining Percentage (%),"mouse hepatocytes; mouse hepatocytes, 60 min",10.30%
same,Remaining Percentage (%),"mouse hepatocytes; mouse hepatocytes, 90 min",3.01%
same,Remaining Percentage (%),"mouse hepatocytes; mouse hepatocytes, 120 min",0.80%
same,"Metabolic Stability in Hepatocytes (60 min), compound remaining","mouse hepatocytes; mouse, 60 min",10%
